Laboratory results taken from BigSolDB 2.1.

N#Cc1cccc([N+](=O)[O-])c1
solubility (mole fraction)
Details	278.15 K	283.15 K	288.15 K	293.15 K	298.15 K	303.15 K	308.15 K	313.15 K	318.15 K
in acetic acid	–	–	–	0.0354	0.04	0.0459	0.0525	0.0608	0.0713
in acetone	0.0789	0.0905	0.106	0.123	0.142	0.164	0.187	0.213	0.242
in acetonitrile	0.0473	0.0565	0.0682	0.0814	0.0973	0.116	0.138	0.164	0.196
in cyclohexane	–	0.000365	0.000472	0.000599	0.000768	0.00097	0.00121	0.00153	0.00193
in ethanol	0.00312	0.0038	0.00473	0.00582	0.00715	0.00873	0.0106	0.013	0.0159
in ethyl acetate	0.0353	0.044	0.0565	0.0706	0.0876	0.109	0.135	0.166	0.203
in isobutanol	0.00162	0.00207	0.00265	0.0033	0.00409	0.00504	0.00624	0.00773	0.00959
in isopropanol	0.0017	0.00215	0.00274	0.0035	0.00446	0.00565	0.00711	0.00905	0.0114
in methanol	0.0041	0.00501	0.00622	0.0076	0.00926	0.0112	0.0134	0.0162	0.0195
in n-butanol	0.00233	0.00286	0.00349	0.00428	0.00538	0.00683	0.00848	0.0104	0.0129
in n-propanol	0.0025	0.00308	0.0038	0.00475	0.00592	0.0073	0.00897	0.0111	0.0135
in toluene	0.0259	0.0304	0.0374	0.0458	0.0557	0.067	0.0813	0.0982	0.119
